In patent publication US20260191968A1, “PROTAC DEGRADERS OF MLLT1 AND/OR MLLT3” (DARK BLUE THERAPEUTICS LTD, priority 2024, published 2026):

Molecular target: T1, MLLT1 (Homo sapiens, UniProt Q03111)
T1 construct: host or cells: MV4-11
T1 sequence (Q03111 1-559): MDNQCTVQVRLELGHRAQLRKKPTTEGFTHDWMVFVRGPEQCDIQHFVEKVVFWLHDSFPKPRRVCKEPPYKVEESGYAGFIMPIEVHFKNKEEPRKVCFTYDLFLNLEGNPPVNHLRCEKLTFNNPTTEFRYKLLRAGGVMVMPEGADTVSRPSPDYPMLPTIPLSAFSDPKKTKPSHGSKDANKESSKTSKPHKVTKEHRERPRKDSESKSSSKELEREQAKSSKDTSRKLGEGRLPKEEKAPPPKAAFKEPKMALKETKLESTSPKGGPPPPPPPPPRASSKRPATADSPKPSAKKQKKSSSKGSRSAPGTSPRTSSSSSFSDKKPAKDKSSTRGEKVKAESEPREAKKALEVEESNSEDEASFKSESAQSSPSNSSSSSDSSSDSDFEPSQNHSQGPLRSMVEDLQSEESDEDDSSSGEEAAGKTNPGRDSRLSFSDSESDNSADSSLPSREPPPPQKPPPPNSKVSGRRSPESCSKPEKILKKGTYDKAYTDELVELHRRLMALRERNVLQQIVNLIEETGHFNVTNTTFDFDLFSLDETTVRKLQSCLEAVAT
Experiment: MLLT1 degradation assay in MV4-11 cells (JESS chemiluminescent detection), three concentrations, 24 h
Format: cell-based
Conditions: with respect to DMSO control
In short: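 Read-out is % MLLT1 degradation versus DMSO, from band peak areas on a JESS chemiluminescent system. Cells (MV4-11) were exposed for 24 h at 37° C to three compound levels, 10, 100 and 1000 nM, in 0.1% DMSO.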

SMILES | MLLT1% Degradation @ 0.01 μM | MLLT1% Degradation @ 0.1 μM | MLLT1% Degradation @ 1 μM
CN1CCC[C@@H]1c1cc2cnc(NC(=O)c3ccc(N4CCC(OCC5CCN(c6cccc7c6C(=O)N(C6CCC(=O)NC6=O)C7=O)CC5)CC4)cc3)cc2[nH]1 (stereo partly drawn) [Example 151, 4-(4-((1-(2-(2,6-dioxopiperidin-3-yl)-1,3-dioxoisoindolin-4-yl)piperidin-4-yl)methoxy)piperidin-1-yl)-N-(2-((R)-1-methylpyrrolidin-2-yl)-1H-pyrrolo[3,2-c]pyridin-6-yl)benzamide] | C (Category C: 25% ≤ C < 50% degradation) | B (Category B: 50% ≤ B < 75% degradation) | A (Category A: A ≥ 75% degradation)
CN1CCC[C@@H]1c1cc2cnc(NC(=O)c3ccc(N4CCC(C5CCN(c6cccc7c6C(=O)N(C6CCC(=O)NC6=O)C7=O)CC5)CC4)nc3)cc2[nH]1 (stereo partly drawn) [Example 152, 6-(1′-(2-(2,6-dioxopiperidin-3-yl)-1,3-dioxoisoindolin-4-yl)-[4,4′-bipiperidin]-1-yl)-N-(2-((R)-1-methylpyrrolidin-2-yl)-1H-pyrrolo[3,2-c]pyridin-6-yl)nicotinamide] | D (Category D: D < 25% degradation) | B (Category B: 50% ≤ B < 75% degradation) | A (Category A: A ≥ 75% degradation)
CN1CCC[C@@H]1c1cc2cnc(NC(=O)c3ccc(OCCN4CCC5(CC4)CCN(c4ccc6c(c4)C(=O)N(C4CCC(=O)NC4=O)C6=O)CC5)cc3)cc2[nH]1 (stereo partly drawn) [Example 166, 4-(2-(9-(2-(2,6-dioxopiperidin-3-yl)-1,3-dioxoisoindolin-5-yl)-3,9-diazaspiro[5.5]undecan-3-yl)ethoxy)-N-(2-((R)-1-methylpyrrolidin-2-yl)-1H-pyrrolo[3,2-c]pyridin-6-yl)benzamide] | C (Category C: 25% ≤ C < 50% degradation) | A (Category A: A ≥ 75% degradation) | A (Category A: A ≥ 75% degradation)
CN1CCC[C@@H]1c1cc2cnc(NC(=O)c3ccc(N4CCC(c5ccc(-c6cccc7c6C(=O)N(C6CCC(=O)NC6=O)C7=O)cc5)CC4)nc3)cc2[nH]1 (stereo partly drawn) [Example 178, 6-(4-(4-(2-(2,6-dioxopiperidin-3-yl)-1,3-dioxoisoindolin-4-yl)phenyl)piperidin-1-yl)-N-(2-((R)-1-methylpyrrolidin-2-yl)-1H-pyrrolo[3,2-c]pyridin-6-yl)nicotinamide] | C (Category C: 25% ≤ C < 50% degradation) | B (Category B: 50% ≤ B < 75% degradation) | B (Category B: 50% ≤ B < 75% degradation)
CN1CCC[C@@H]1c1cc2cnc(NC(=O)c3ccc(OCCC4CCN(c5cccc6c5C(=O)N(C5CCC(=O)NC5=O)C6=O)CC4)nc3)cc2[nH]1 (stereo partly drawn) [Example 179, 6-(2-(1-(2-(2,6-dioxopiperidin-3-yl)-1,3-dioxoisoindolin-4-yl)piperidin-4-yl)ethoxy)-N-(2-((R)-1-methylpyrrolidin-2-yl)-1H-pyrrolo[3,2-c]pyridin-6-yl)nicotinamide] | B (Category B: 50% ≤ B < 75% degradation) | B (Category B: 50% ≤ B < 75% degradation) | B (Category B: 50% ≤ B < 75% degradation)
CN1CCC[C@@H]1c1cc2cnc(NC(=O)c3ccc(N4CCN(CC5CCN(c6cc7c(cc6F)C(=O)N(C6CCC(=O)NC6=O)C7=O)CC5)CC4)cc3)cc2[nH]1 (stereo partly drawn) [Example 180, 4-(4-((1-(2-(2,6-dioxopiperidin-3-yl)-6-fluoro-1,3-dioxoisoindolin-5-yl)piperidin-4-yl)methyl)piperazin-1-yl)-N-(2-((R)-1-methylpyrrolidin-2-yl)-1H-pyrrolo[3,2-c]pyridin-6-yl)benzamide] | C (Category C: 25% ≤ C < 50% degradation) | B (Category B: 50% ≤ B < 75% degradation) | B (Category B: 50% ≤ B < 75% degradation)
